From patent US11345691B2, “Prodrug modulators of the cystic fibrosis transmembrane conductance regulator protein and methods of use” (AbbVie Global Enterprises Ltd., priority 2019, dated 2022)

Assay: Phase 1 first-in-human single ascending dose pharmacokinetic study (Pharmacokinetic Study 1)
Type: in vivo
Settings: after single oral 250 mg or 500 mg dose of Example 4—Prodrug; healthy adult subjects
Method: Evaluate the PK profile of Example 4, which is a prodrug of (5-{3-amino-5-[4-(trifluoromethoxy)benzene-1-sulfonyl]pyridin-2-yl}-1,3,4-oxadiazol-2-yl)methanol, in healthy human adult subjects.
Two open label Phase 1, first in human studies in adult healthy subjects were conducted to evaluate the safety, tolerability, and pharmacokinetics of single oral doses of Example 1 administered as an oral suspension and prodrug Example 4 capsule, respectively. Subjects were screened and enrolled based on pre-specified criteria for inclusion and exclusion. The safety in subjects was determined by clinical evaluation and by monitoring of laboratory parameters. Blood samples were longitudinally collected at pre-specified time points following the administration of Example 1 or Example 4—Prodrug to measure the plasma concentrations of study drug and determine the pharmacokinetics of Example 1 and Example 4—Prodrug.
For this study the inclusion criteria includes the following: • 1. […]
Plasma concentrations of Example 1 and Example 4—Prodrug were determined using validated methods. The values for the pharmacokinetic parameters of Example 1 or Example 4—Prodrug were determined using noncompartmental methods with WinNonlin Phoenix 8.1.

CC(C)[C@H](N)C(=O)OCc1nnc(-c2ncc(S(=O)(=O)c3ccc(OC(F)(F)F)cc3)cc2N)o1 [Example 4, (5-{3-amino-5-[4-(trifluoromethoxy)benzene-1-sulfonyl]pyridin-2-yl}-1,3,4-oxadiazol-2-yl)methyl (2S)-2-amino-3-methylbutanoate]
Plasma concentrations of intact Example 4—Prodrug: no quantifiable plasma concentrations
